Experimental data: US9409892B2, “4-hydroxy-isoquinoline compounds as HIF hydroxylase inhibitors” (FIBROGEN, INC., priority 2012, dated 2016)

Legend:
[1] = biological target: PHD1 (EGLN2) (Homo sapiens (Human), UniProt Q96KS0); assay: HIF-PH assay (14CO2 capture), PHD1 enzyme inhibition; type: biochemical; conditions: Table 1; for IC50: individual measurement, read-out: IC50 (μM) PHD1; for PHD2/PHD1: ratio of the IC50 of the compound for each enzyme
[2] = biological target: PHD2 (EGLN1) (Homo sapiens (Human), UniProt Q9GZT9); assay: HIF-PH assay (14CO2 capture), PHD2 enzyme inhibition; type: biochemical; conditions: Table 1; individual measurement; read-out: IC50 (μM) PHD2
PHD2 (EGLN1), sequence (Q9GZT9 whole entry): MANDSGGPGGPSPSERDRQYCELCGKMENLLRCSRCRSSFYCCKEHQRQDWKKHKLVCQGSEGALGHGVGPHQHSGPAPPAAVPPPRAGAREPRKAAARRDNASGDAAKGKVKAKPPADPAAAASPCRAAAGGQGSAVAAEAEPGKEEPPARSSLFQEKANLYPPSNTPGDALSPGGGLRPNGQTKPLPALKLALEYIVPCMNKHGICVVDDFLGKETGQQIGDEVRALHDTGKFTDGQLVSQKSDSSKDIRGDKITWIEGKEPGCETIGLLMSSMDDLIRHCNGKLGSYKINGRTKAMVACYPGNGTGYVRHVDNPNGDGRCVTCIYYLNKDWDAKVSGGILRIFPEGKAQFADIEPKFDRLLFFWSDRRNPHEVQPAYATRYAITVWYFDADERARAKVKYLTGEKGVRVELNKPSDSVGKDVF

PHD1 (EGLN2), sequence (Q96KS0 whole entry): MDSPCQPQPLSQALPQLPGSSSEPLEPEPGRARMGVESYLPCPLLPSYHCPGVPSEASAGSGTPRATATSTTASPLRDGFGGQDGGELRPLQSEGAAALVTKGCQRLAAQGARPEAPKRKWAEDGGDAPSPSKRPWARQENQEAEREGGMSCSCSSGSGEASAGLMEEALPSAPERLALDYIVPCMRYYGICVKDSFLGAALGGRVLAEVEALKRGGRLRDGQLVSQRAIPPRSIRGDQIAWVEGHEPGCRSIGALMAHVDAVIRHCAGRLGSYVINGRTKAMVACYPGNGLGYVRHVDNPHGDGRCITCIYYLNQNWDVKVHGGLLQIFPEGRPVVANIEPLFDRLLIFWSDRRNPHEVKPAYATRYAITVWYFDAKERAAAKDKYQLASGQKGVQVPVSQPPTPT

IC50 [1] | PHD2/PHD1 [1] | IC50 [2] | SMILES
9.57 µM | 10 | 100 µM | O=C(NCC(C(=O)O)C1CC1)c1ncc2cc(Oc3ccccc3)ccc2c1O (stereo not drawn) [Compound 167, 2-Cyclopropyl-3-[(4-hydroxy-7-phenoxy-isoquinoline-3-carbonyl)-amino]-propionic acid]
0.53 µM | 16 | 8.5 µM | CC(C)(CC(=O)O)NC(=O)c1nc(C#N)c2cc(Oc3ccc(F)cc3)ccc2c1O [Compound 102, 3{-[1-Cyano-7-(4-fluoro-phenoxy)-4-hydroxy-isoquinoline-3-carbonyl]-amino}-3-methyl-butyric acid]
8.99 µM | 7 | 65.2 µM | N#Cc1nc(C(=O)NCCCCC(=O)O)c(O)c2cc(Oc3ccccc3)ccc12 [Compound 128, 5-[(1-Cyano-4-hydroxy-6-phenoxy-isoquinoline-3-carbonyl)-amino]-pentanoic acid]
0.13 µM | 6.5 | 0.86 µM | CC(C)(CNC(=O)c1nc(C#N)c2cc(Oc3ccc4ccccc4c3)ccc2c1O)C(=O)O [Compound 59, 3{-[1-Cyano-4-hydroxy-7-(naphthalen-2-yloxy)-isoquinoline-3-carbonyl]-amino}-2,2-dimethyl-propionic acid]
